Data: ChEMBL document CHEMBL5724696, “Autophagy assay results for EUbOPEN Chemogenomics Library” (2024)
“And” between values parts separate entries of the source, which are not always exact repeats. Identical values can stand only once.

Legend:
Assay type in all cases: functional, Homo sapiens
TERT-RPE1 = assay: (§1) Here: values are normalized to the negative (DMSO; defined as 0% autophagy induction) and positive (250nM Torin1; mTOR inhibitor; defined as maximal inducer of autophagy = 100%) control compounds and represented as % of autophagy induction. […] The impact of autophagy induction on cells is complex and depends on the affected target. As such, the magnitude of a phenotype may not be equally mirrored in the %-value of autophagy induction and vice versa. The dynamics of the induction may indicate the mode of activation: e.g. activation via phosphorylation or a signaling cascade may occur fast, while activation via transcription factors may take considerably longer. […] Of note, treatment concentrations may be sub-optimal for specific compounds, leading to false negative annotations.; settings: Culturing Media DMEM/F12 (1:1), 1 % Penicillin/Streptomycin, 10% Fetal bovin serum Add-On: No, Screening Media Control DMEM/F12 (1:1), Screening Media Samples DMEM/F12 (1:1)
U2OS [1] = assay: as §1; settings: Culturing Media DMEM, 1 % Penicillin/Streptomycin, 10% Fetal bovin serum Add-On: No, Screening Media Control DMEM, Screening Media Samples DMEM
U2OS [2] = assay: as §1; settings: Culturing Media DMEM, 1 % Penicillin/Streptomycin, 10% Fetal bovin serum Add-On: No, Screening Media Control DMEM, Screening Media Samples DMEM; remark: listed apart in the source
[3] = Compound Concentration 0.5 uM, Timepoint 12 hours, 12 h, 0.5 µM
[4] = Compound Concentration 0.5 uM, Timepoint 24 hours, 24 h, 0.5 µM
[5] = Compound Concentration 0.5 uM, Timepoint 36 hours, 36 h, 0.5 µM
[6] = Compound Concentration 0.5 uM, Timepoint 60 hours, 60 h, 0.5 µM
[7] = Compound Concentration 2 uM, Timepoint 24 hours, 24 h, 2 µM
[8] = Compound Concentration 2 uM, Timepoint 36 hours, 36 h, 2 µM
[9] = Compound Concentration 2 uM, Timepoint 60 hours, 60 h, 2 µM
[10] = Compound Concentration 10 uM, Timepoint 12 hours, 12 h, 10 µM
[11] = Compound Concentration 10 uM, Timepoint 24 hours, 24 h, 10 µM
[12] = Compound Concentration 10 uM, Timepoint 36 hours, 36 h, 10 µM
[13] = Compound Concentration 10 uM, Timepoint 60 hours, 60 h, 10 µM
[14] = Compound Concentration 0.5 uM, Timepoint 12 hours
[15] = Compound Concentration 0.5 uM, Timepoint 24 hours
[16] = Compound Concentration 0.5 uM, Timepoint 36 hours
[17] = Compound Concentration 0.5 uM, Timepoint 60 hours
[18] = Compound Concentration 2 uM, Timepoint 12 hours
[19] = Compound Concentration 2 uM, Timepoint 24 hours
[20] = Compound Concentration 2 uM, Timepoint 36 hours
[21] = Compound Concentration 2 uM, Timepoint 60 hours
[22] = Compound Concentration 10 uM, Timepoint 12 hours
[23] = Compound Concentration 10 uM, Timepoint 24 hours
[24] = Compound Concentration 10 uM, Timepoint 36 hours
[25] = Compound Concentration 10 uM, Timepoint 60 hours
[26] = Compound Concentration 2 uM, Timepoint 12 hours, 12 h, 2 µM

| SMILES | autophagy induction (TERT-RPE1; [3]) | autophagy induction (TERT-RPE1; [4]) | autophagy induction (TERT-RPE1; [5]) | autophagy induction (TERT-RPE1; [6]) | autophagy induction (TERT-RPE1; [7]) | autophagy induction (TERT-RPE1; [8]) | autophagy induction (TERT-RPE1; [9]) | autophagy induction (TERT-RPE1; [10]) | autophagy induction (TERT-RPE1; [11]) | autophagy induction (TERT-RPE1; [12]) | autophagy induction (TERT-RPE1; [13]) | autophagy induction (U2OS [1]; [14]) [%] | autophagy induction (U2OS [1]; [15]) [%] | autophagy induction (U2OS [1]; [16]) [%] | autophagy induction (U2OS [1]; [17]) [%] | autophagy induction (U2OS [1]; [18]) [%] | autophagy induction (U2OS [1]; [19]) [%] | autophagy induction (U2OS [1]; [20]) [%] | autophagy induction (U2OS [1]; [21]) [%] | autophagy induction (U2OS [1]; [22]) [%] | further results |
| --- | --- | --- | --- | --- | --- | --- | --- | --- | --- | --- | --- | --- | --- | --- | --- | --- | --- | --- | --- | --- | --- |
| CCCCCCCCCCCCCCCCOC[C@H](COP(=O)([O-])OCC[N+](C)(C)C)OC(C)=O | -0.9527% and 1.704% | -3.436% and -0.1454% | -3.259% and 2.221% | -5.529% and 3.615% | -0.2119% and 13.6511% | -1.573% and 9.518% | -2.541% and 14.6368% | 8.2187% and 7.039% | 4.065% and 6.451% | 4.665% and 7.035% | 6.217% and 11.8263% | 2.963 | 0.1782 | 2280.79 | -1.799 | -5.387 | -3.326 | 2231.79 | -1.895 | -2.708 | autophagy induction (U2OS [1]; [23]): -1.793%; autophagy induction (U2OS [1]; [24]): 678.152%; autophagy induction (U2OS [1]; [25]): 1.655%; autophagy induction (U2OS [2]; [14]): 1.863%; autophagy induction (U2OS [2]; [15]): 3.665%; autophagy induction (U2OS [2]; [16]): -3.033%; autophagy induction (U2OS [2]; [17]): -9.658%; autophagy induction (U2OS [2]; [18]): 2.298%; autophagy induction (U2OS [2]; [19]): -2.882%; autophagy induction (U2OS [2]; [20]): -2.921%; autophagy induction (U2OS [2]; [21]): -2.8%; autophagy induction (U2OS [2]; [22]): 10.6263%; autophagy induction (U2OS [2]; [23]): 0.8651%; autophagy induction (U2OS [2]; [24]): 6.18%; autophagy induction (U2OS [2]; [25]): 5.674% |
| FC(F)(F)c1c(N2CCC(c3ccccc3)CC2)ccn2c(CC3CC3)nnc12 | 0.8285% and 1.833% | -1.6355% and 0.4371% | -2.42% and 3.239% | -6.544% and 5.154% | -0.3973% and 6.29% | -4.125% and 5.099% | -2.871% and 7.601% | 0.02052% and 7.4327% | -1.251% and 7.807% | -2.896% and 10.4333% | -4.9464% and 19.419% | -3.682 | -3.457 | 1345.14 | -2.1724 | -2.443 | -4.21 | -60.9304 | -2.478 | 1.237 | autophagy induction (TERT-RPE1; [26]): -0.736% and 6.309%; autophagy induction (U2OS [1]; [23]): -0.8788%; autophagy induction (U2OS [1]; [24]): -59.5065%; autophagy induction (U2OS [1]; [25]): -0.8045%; autophagy induction (U2OS [2]; [14]): 6.212%; autophagy induction (U2OS [2]; [15]): 3.779%; autophagy induction (U2OS [2]; [16]): -3.086%; autophagy induction (U2OS [2]; [17]): -2.905%; autophagy induction (U2OS [2]; [18]): -8.584%; autophagy induction (U2OS [2]; [19]): -5.642%; autophagy induction (U2OS [2]; [20]): -3.294%; autophagy induction (U2OS [2]; [21]): -4.323%; autophagy induction (U2OS [2]; [22]): -9.128%; autophagy induction (U2OS [2]; [23]): -9.508%; autophagy induction (U2OS [2]; [24]): -1.15%; autophagy induction (U2OS [2]; [25]): -1.079% |
| CCCCC#Cc1nc(NC)c2ncn([C@@H]3O[C@H](CO)[C@@H](O)[C@H]3O)c2n1 | -2.336% and -0.4442% | -5.778% and -2.388% | -6.915% and -5.4% | -6.339% and -4.703% | 3.405% and -0.3092% | 0.8288% and 0.6571% | 0.7882% and 0.00413% | 9.462% and -4.43% | 9.8196% and -3.782% | 10.3694% and -2.886% | 10.0597% and -2.862% | 7.971 | 2.814 | -58.1103 | -0.9818 | 3.199 | -2.198 | -60.437 | -1.323 | 0.2414 | autophagy induction (TERT-RPE1; [26]): 2.252% and 1.572%; autophagy induction (U2OS [1]; [23]): -3.3271%; autophagy induction (U2OS [1]; [24]): -60.2602%; autophagy induction (U2OS [1]; [25]): -0.5763%; autophagy induction (U2OS [2]; [14]): 1.872%; autophagy induction (U2OS [2]; [15]): -1.476%; autophagy induction (U2OS [2]; [16]): -3.077%; autophagy induction (U2OS [2]; [17]): -6.595%; autophagy induction (U2OS [2]; [18]): -4.8354%; autophagy induction (U2OS [2]; [19]): -5.442%; autophagy induction (U2OS [2]; [20]): -4.18%; autophagy induction (U2OS [2]; [21]): -14.3215%; autophagy induction (U2OS [2]; [22]): -0.5241%; autophagy induction (U2OS [2]; [23]): -0.2798%; autophagy induction (U2OS [2]; [24]): -5.149%; autophagy induction (U2OS [2]; [25]): -3.023% |
